# Reference: US10729718B2, “Substances containing AuCs and preparation method and use thereof” (Shenzhen Profound-View Pharma Tech Co., Ltd, priority 2016, dated 2020)
# Legend:
# [1] = test system: SH-SY5Y neuroblastoma cell line; experiment: Aβ induced AD cell model, cell viability by CCK-8 method; format: cell-based; settings: 0.01-20 ppm (L-NIBC 20 ppm); 20 μM Aβ(1-40), 24 h
# Method: The cell viability was used as an index in the experiment of this embodiment. […] The cells used in the experiment were SH-SY5Y neuroblastoma cell line. […] Specific method:
# 1) SH-sy5y cells (cells had passed to the sixth generation) in logarithmic growth phase were diluted with complete medium (MEM+10% FBS+1% penicillin-streptomycin) to get a cell suspension in a density of 5×10^4/mL. The suspension was inoculated 200 μL per well into a 96-well plate, and cultivated in an incubator with 5% CO2 at 37° C. A sample was added when the cells attached to the wells.
# 2) 100 μL ligand-modified AuCs samples or ligand-modified gold nanoparticles samples, at different particle sizes and at concentrations of 0.04 ppm, 0.4 ppm, 4 ppm, 20 ppm, 40 ppm and 80 ppm respectively, which were dissolved by maintenance medium (MEM+2% FBS+1% penicillin-streptomycin) were added into the incubated suspension obtained from Step 1). After incubating in the incubator for 2 h, 100 μL 80 μM Aβ(1-40) was added, and then the mixture was incubated in the incubator for 24 h. […] The culture medium was removed, maintenance medium (MEM) containing 10% CCK-8 at 100 μL/well was added and was incubated for 4 h, the absorbance of each well at 450 nm was measured to reflect the prevention and treatment effects of ligand-modified AuCs on Aβ(1-40) lesion.
# SH-sy5y cells = experiment: MPP+ induced PD cell (SH-sy5y) model, Experiment 2, CCK-8; format: cell-based; settings: 1 mM MPP^+ and ligand 20 ppm, 24 h; model control 65.1±4.0%
# Aβ(1-40) [2] = biological target: T1, Aβ(1-40) (Homo sapiens, UniProt P05067); experiment: AFM topography of Aβ(1-40) after coincubation for 48 h; format: biochemical; settings: coincubated with Aβ(1-40) for 48 h
# T1 construct: Freeze-dried powder of amyloid polypeptide Aβ(1-40) (Invitrogen Corp.); purchased Invitrogen Corp
# Method: Panel A is the AFM topography after Aβ(1-40) was incubated alone for 48 h. Panel B is an AFM topography after Aβ(1-40) was coincubated with L-NIBC for 48 h. Panel C and panel D are AFM topographies after Aβ(1-40) was coincubated with gold nanoparticles with an average particle size of 6.0 nm and 3.6 nm respectively (modified with L-NIBC) for 48 h. And panel E is an AFM topography after Aβ(1-40) was coincubated with AuCs in an average particle size of 1.8 nm (modified with L-NIBC) for 48 h.
# Aβ(1-40) [3] = biological target: T1, Aβ(1-40); experiment: In vitro Aβ aggregation kinetic experiment (ThT fluorescent labeling method); format: biochemical; settings: ThT fluorescence, 20 μM Aβ(1-40), 37° C., up to 20.0 ppm (L-NIBC 1.0 and 10.0 ppm)
# Source text: Thioflavin T (abbreviation: ThT) is a dye specifically for dyeing amyloid fibers. […] When it encounters amyloid polypeptides or proteins with a fiber structure, it will immediately couple with the amyloid polypeptides or proteins and its fluorescence intensity will increase exponentially. Just because of this property, ThT is widely used as a marker to monitor amyloidosis of peptides or proteins. The fibrosis process of Aβ(1-40) is also a nucleation-controlled polymerization process. Therefore, the growth curve of Aβ(1-40) fiber measured by ThT fluorescent labeling method is mainly divided into three stages: Initial stage, growth stage and platform stage. […] All the Aβ(1-40) PBS solutions for the experiments were prepared freshly. […] The samples were incubated continuously in a 96-well plate at 37° C. by ThT fluorescent labeling method, and monitored the fluorescence intensity by microplate reader once every 10 minutes.
# α-syn = biological target: T2, α-syn (Homo sapiens, UniProt P37840); experiment: In vitro α-syn aggregation kinetics (ThT fluorescent labeling method); format: biochemical; settings: ligand only (L-NIBC 1.0 and 10.0 ppm), 35 μM α-syn, 37° C.
# T2 construct: purchased Bachem Corp
# Source text: Thioflavin T (abbreviation: ThT) is a dye for dyeing amyloid fibers specifically. […] When it encounters amyloid polypeptide or protein with a fiber structure, it will immediately couple with the amyloid polypeptides or proteins and its fluorescence intensity will increase exponentially. For this reason, ThT is widely used as markers to monitor amyloidosis of peptides or proteins. This embodiment utilizes ThT fluorescent labeling method to monitor the kinetics process of fibrosis aggregation of α-syn with the existence of AuCs. The specific experiment method was as follows:
# Pretreatment of α-syn monomers: Freeze-dried powder (Bachem Corp.) of α-syn was dissolved in HFIP to obtain a 1 g/L α-syn solution. The solution was incubated at room temperature for 2-4 h after sealing, then blowed to dry HFIP by high-purity nitrogen in a fume hood. […]
# Sample preparation and detection: Ligand-modified AuCs in different concentrations listed in Table 1 were added to 35 μM α-syn PBS solutions respectively, and incubated continuously in a 96-well plate at 37° C., by ThT fluorescent labeling method, and were monitored the fluorescence intensity by microplate reader once every 10 minutes. The kinetic process of α-syn aggregation was characterized through the change of fluorescence intensity of ThT. […]
# T1 sequence (P05067 672-711 limits assumed): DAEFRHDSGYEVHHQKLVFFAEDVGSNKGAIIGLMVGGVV
compound,measurement,setting,value
"CC(C)C(=O)N[C@@H](CS)C(=O)O [L-NIBC, N-isobutyryl-L-cysteine]",effect on cell viability of Aβ induced AD cell model,[1],did not improve cell viability
same,cell viability of the ligand control group,SH-sy5y cells,61.5±3.8%
same,formation of Aβ(1-40) fibers (AFM topography),Aβ(1-40) [2],no obvious effect
same,effect on Aβ(1-40) amyloidosis / aggregation kinetics,Aβ(1-40) [3],no obvious effect
same,effect on kinetics of α-syn aggregation,α-syn,did not have an obvious effect
